The NIST ThermoML archive (doi:10.1016/j.jct.2014.06.006)
± gives the expanded uncertainty stated by the source.

Test: activity coefficient (dimensionless); of the first substance listed, at infinite dilution; xn = mol fraction of the nth substance listed
Settings: 298 K; 238 kPa; Liquid; Chromatography; x1 = 0

| SMILES | activity coefficient |
| --- | --- |
| CCCCCCC [heptane] + CC(O)CO | 109 ± 30 |
| Cc1ccccc1C [1,2-dimethylbenzene] + COCCO | 5 ± 0.3 |
| C=CCCCCC=C [1,7-octadiene] + COCCO | 10.6 ± 0.5 |
| Brc1ccccc1 [bromobenzene] + COCCO | 3.5 ± 0.2 |
| Cc1cccc(C)c1 [1,3-dimethylbenzene] + COCCO | 5.2 ± 0.3 |
| Cc1ccccc1 [toluene] + CC(O)CO | 17 ± 2.1 |
| Cc1ccccc1C [1,2-dimethylbenzene] + CC(O)CO | 26.3 ± 3.1 |
| CCCCCCCC [octane] + CC(O)CO | 150 ± 40 |
| CCCCCCCCC [nonane] + COCCO | 41.4 ± 1.7 |
| Cc1ccccc1 [toluene] + COCCO | 3.6 ± 0.4 |
| Cc1cccc(C)c1 [1,3-dimethylbenzene] + CC(O)CO | 28.4 ± 2.2 |
| C1CCCCC1 [cyclohexane] + COCCO | 11.4 ± 0.7 |
| Clc1ccccc1 [chlorobenzene] + COCCO | 2.9 ± 0.4 |
| C=CC1CC=CCC1 (stereo unspecified) [4-ethenylcyclohexene] + COCCO | 8.6 ± 0.3 |
| Cc1ccc(C)cc1 [1,4-dimethylbenzene] + COCCO | 5.2 ± 0.3 |
| Cc1ccc(C)cc1 [1,4-dimethylbenzene] + CC(O)CO | 26.7 ± 3.1 |
| Clc1ccccc1 [chlorobenzene] + CC(O)CO | 13.6 ± 1.1 |

Continued, values first:

| activity coefficient | SMILES |
| --- | --- |
| 8.5 ± 0.5 | Fc1ccccc1 [fluorobenzene] + CC(O)CO |
| 11.8 ± 1.1 | c1ccccc1 [benzene] + CC(O)CO |
| 56.8 ± 2.2 | CCCCCCCCCC [decane] + COCCO |
| 1.8 ± 0.2 | Fc1ccccc1 [fluorobenzene] + COCCO |
| 27.9 ± 1 | CCCCCCCC [octane] + COCCO |
| 136 ± 21 | c1ccc2ccccc2c1 [naphthalene] + CC(O)CO |
| 7.4 ± 0.3 | C1=CCCCC1 [cyclohexene] + COCCO |
| 4.9 ± 0.3 | CCc1ccccc1 [ethylbenzene] + COCCO |
| 94.6 ± 3.7 | CCCCCCCCCCC [undecane] + COCCO |
| 22.4 ± 0.9 | CCCCCCC [heptane] + COCCO |
| 63 ± 20 | CCCCCC [hexane] + CC(O)CO |
| 20.1 ± 0.9 | C1CCCCCCC1 [cyclooctane] + COCCO |
| 2.4 ± 0.4 | c1ccccc1 [benzene] + COCCO |
| 10 ± 0.5 | Cc1ccc(C(C)C)cc1 [1-(1-methylethyl)-4-methylbenzene] + COCCO |
| 11 ± 2 | c1ccc2ccccc2c1 [naphthalene] + COCCO |
| 11 ± 0.7 | CC1CCCC1 [methylcyclopentane] + COCCO |
| 16.3 ± 0.8 | CCCCCC [hexane] + COCCO |
| 26.2 ± 3.1 | CCc1ccccc1 [ethylbenzene] + CC(O)CO |
| 14.7 ± 0.9 | CC1CCCCC1 [methylcyclohexane] + COCCO |
